# Measurements from article PMC10541198, “Specific quinone reductase 2 inhibitors reduce metabolic burden and reverse Alzheimer’s disease phenotype in mice” (The Journal of Clinical Investigation, 2023).
# Values joined by “and” are separate entries in the source; they are usually repeats but may differ in a detail not shown here. Identical values can stand only once.
# System: Sprague Dawley rats
# Assay: Incidental novel taste learning, microinjection to anterior insular cortex
# Format: in vivo, rat
# Details: 1 μL of 20 μM to aIC
# Method: In order to evaluate the efficacy of some of the leading QR2is in vivo, we carried out double-blind experiments using 2 different modalities (Supplemental Methods), measuring memory that is dependent on different brain areas. First, cortical memory was tested using incidental novel taste learning (see Methods), in which an unfamiliar, but palatable and safe, taste is given for the first time, and the memory for this newly learned taste is then assessed 2 days later. This is done by measuring the volume of the taste consumed upon subsequent exposure to it ([32]) (Figure 4A). […] Next, hippocampal-dependent learning was evaluated using delay fear conditioning (DFC; see Methods) ([33]). […] In order to evaluate any possible effect of acute QR2i microinjection on metabolic stress in the mouse brain, ISR activation was measured by quantifying total and phosphorylated eukaryotic initiation factor 2 α (eIF2α) levels (Supplemental Figure 3A) and lipid peroxidation product, 4-hydroxynonenal (4-HNE; Supplemental Figure 3B), by immunoblot 3 hours after the injection.
# Rats were taught to drink from 2 pipettes each filled with 10 mL of water during a 20 minute period, over 3 days. […] The memory for the novel taste was then assessed after 20 minutes of liquid consumption by calculating a preference index as follows: (novel taste consumed/[novel taste consumed+water consumed]) × 100 ([32], [56]). […]
smiles,measurement,value
Cc1ccc(-c2cn3cccc(C)c3n2)cc1S(=O)(=O)N1CCCC1 [YB-808],NaCl preference (individual rats),38.6905 and 81.6144 and 53.3708 and 75.5102 and 61.3924 and 79.4286 and 85.6322 and 50.9317 and 62.1118 and 87.6289 and 81.5476 and 81.8182 and 84.5161 and 50.3067 and 72.807 and 50.2703 and 76.5766 and 61.9048
